Results published in PMC5021161 (Environmental and Molecular Mutagenesis, 2016).
Where two headings read alike, the source gives them in different places. Each block holds one molecule with its values, some of them ahead of it.

What was measured:
TK6 cells [1] = details: for % MN: 2% Aroclor S9; for statistically significant % MN increase relative to controls: for at least one concentration
GADD45A = format: cell-based, human
[2] = system: TGx‐28.65 biomarker genes; details: for Dendogram TGx‐28.65 / NSC TGx‐28.65 / PCA TGx‐28.65: 2% Aroclor S9, 4 hr + 3-4 hr recovery
TK6 cells [3] = details: for % Relative Survival: 2% Aroclor S9, 4 hr + 20 hr recovery
TK6 cells [4] = details: 2% Aroclor S9, 4 hr + 20 hr recovery
CDKN1A = format: cell-based, human
ATF3 = format: cell-based, human; details: 2% Aroclor S9, 4 hr + 3-4 hr recovery
[5] = system: ATF3, CDKN1A, and GADD45A; experiment: RT‐qPCR of the three stress response genes; format: cell-based, human; details: 2% Aroclor‐induced S9
[6] = system: TGx‐28.65 biomarker genes; details: 2015, cited from earlier work; for Dendogram TGx‐28.65 / NSC TGx‐28.65 / PCA TGx‐28.65: 1% BF/PB S9
TK6 cells [7] = details: 1% BF/PB S9, ref Buick et al., 2015, cited from earlier work
[8] = 1 mM, 2% Aroclor S9, 4 hr + 3-4 hr recovery
[9] = 5 mM, 2% Aroclor S9, 4 hr + 3-4 hr recovery
[10] = 10 mM, 2% Aroclor S9, 4 hr + 3-4 hr recovery
[11] = 2 μg/ml, 2% Aroclor S9, 4 hr + 3-4 hr recovery
[12] = 1 μg/ml, 2% Aroclor S9, 4 hr + 3-4 hr recovery
[13] = 20 μg/ml, 2% Aroclor S9, 4 hr + 3-4 hr recovery
[14] = 280 μg/ml, 2% Aroclor S9, 4 hr + 3-4 hr recovery

Structure (SMILES): OC[C@H]1O[C@@](CO)(O[C@H]2O[C@H](CO)[C@@H](O)[C@H](O)[C@H]2O)[C@@H](O)[C@@H]1O [Sucrose]
% MN (TK6 cells [1]; 1 mM, 4 hr + 20 hr recovery): 0.94%
% MN (TK6 cells [1]; 10 mM, 4 hr + 20 hr recovery): 0.97%
increase in % MN (TK6 cells [1]; definitive study, 2% Aroclor‐induced S9): no significant increase
GADD45A fold change vs vehicle control (+S9) (GADD45A): 0.8 fold change
Dendogram TGx‐28.65 ([2]; 1 mM): −
NSC TGx‐28.65 ([2]; 1 mM): −
PCA TGx‐28.65 ([2]; 1 mM): −
Dendogram TGx‐28.65 ([2]; 10 mM): −
NSC TGx‐28.65 ([2]; 10 mM): −
PCA TGx‐28.65 ([2]; 10 mM): −
% Relative Survival (TK6 cells [3]; 1 mM): 95.04%
% Relative Survival (TK6 cells [3]; 10 mM): 90.93%
% Apoptotic cells (TK6 cells [4]; 1 mM): 8.98%
% Apoptotic cells (TK6 cells [4]; 10 mM): 9.75%
CDKN1A fold change vs vehicle control (+S9) (CDKN1A): 0.4 fold change

Structure (SMILES): CN(C)N=O [Dimethylnitrosamine]
change in % MN relative to DMSO controls (TK6 cells [1]): Significant increases
% MN (TK6 cells [1]; 1 mM, 4 hr + 20 hr recovery): 1.15%
% MN (TK6 cells [1]; 5 mM, 4 hr + 20 hr recovery): 2.29%
% MN (TK6 cells [1]; 10 mM, 4 hr + 20 hr recovery): 2.80%
statistically significant % MN increase relative to controls (TK6 cells [1]; definitive study): over twofold
ATF3 fold change vs vehicle control (+S9) (ATF3; 1 mM): 0.8 fold change
ATF3 fold change vs vehicle control (+S9) (ATF3; 5 mM): 0.8 fold change
ATF3 fold change vs vehicle control (+S9) (ATF3; 10 mM): 0.8 fold change
GADD45A fold change vs vehicle control (+S9) (GADD45A; [8]): 1.0 fold change
GADD45A fold change vs vehicle control (+S9) (GADD45A; [9]): 1.2 fold change
GADD45A fold change vs vehicle control (+S9) (GADD45A; [10]): 1.5 fold change
Dendogram TGx‐28.65 ([2]; 1 mM): −
NSC TGx‐28.65 ([2]; 1 mM): −
PCA TGx‐28.65 ([2]; 1 mM): −
Dendogram TGx‐28.65 ([2]; 5 mM): +
NSC TGx‐28.65 ([2]; 5 mM): +
PCA TGx‐28.65 ([2]; 5 mM): +
Dendogram TGx‐28.65 ([2]; 10 mM): +
NSC TGx‐28.65 ([2]; 10 mM): +
PCA TGx‐28.65 ([2]; 10 mM): +
hierarchical cluster analysis with TGx‐28.65 ([2]; 10% Aroclor‐induced S9, lowest concentration (1 mM)): on the same branch as non‐genotoxic agents
classification using TGx‐28.65 ([2]; low concentrations): non‐genotoxic
classification using TGx‐28.65 ([2]; mid and high concentrations): genotoxic
induction of genes in the stress response panel [5]: did not induce any of the genes
change in RS relative to DMSO controls (TK6 cells [3]): declines
% Relative Survival (TK6 cells [3]; 1 mM): 76.40%
% Relative Survival (TK6 cells [3]; 5 mM): 72.92%
% Relative Survival (TK6 cells [3]; 10 mM): 45.65%
% Apoptotic cells (TK6 cells [4]; 1 mM): 8.47%
% Apoptotic cells (TK6 cells [4]; 5 mM): 12.27%
% Apoptotic cells (TK6 cells [4]; 10 mM): 30.63%
CDKN1A fold change vs vehicle control (+S9) (CDKN1A; [8]): 1.0 fold change
CDKN1A fold change vs vehicle control (+S9) (CDKN1A; [9]): 1.3 fold change
CDKN1A fold change vs vehicle control (+S9) (CDKN1A; [10]): 1.2 fold change

Structure (SMILES): Nc1ccc2cc3ccccc3cc2c1 [2‐Aminoanthracene]
% MN (TK6 cells [1]; 2 μg/ml, 4 hr + 20 hr recovery): 1.22%
fold increase in % MN above vehicle + S9 control (TK6 cells [1]; high concentration, definitive study, 4 hr + 20 hr recovery): 1.8 fold
ATF3 fold change vs vehicle control (+S9) (ATF3; 2 μg/ml): 2.3 fold change
GADD45A fold change vs vehicle control (+S9) (GADD45A; [11]): 1.7 fold change
Dendogram TGx‐28.65 ([2]; 2 μg/ml): +
NSC TGx‐28.65 ([2]; 2 μg/ml): +
PCA TGx‐28.65 ([2]; 2 μg/ml): +
probability of being genotoxic (NSC, TGx‐28.65) ([2]; all concentrations): > 0.9
classification using TGx‐28.65 ([2]; mid and high concentrations): genotoxic
% Relative Survival (TK6 cells [3]; 2 μg/ml): 46.78%
% Relative Survival (TK6 cells [3]; 2 μg/ml, listed as 2‐aminoanthracene): 47%
% Apoptotic cells (TK6 cells [4]; 2 μg/ml): 18.48%
CDKN1A fold change vs vehicle control (+S9) (CDKN1A; [11]): 4.6 fold change

Structure (SMILES): c1ccc2c(c1)ccc1ccccc12 [Phenanthrene]
increase in % MN (TK6 cells [1]): no significant increase
Dendogram TGx‐28.65 ([2]; 8 μg/ml): −
NSC TGx‐28.65 ([2]; 8 μg/ml): −
PCA TGx‐28.65 ([2]; 8 μg/ml): −
Dendogram TGx‐28.65 ([2]; 40 μg/ml): −
NSC TGx‐28.65 ([2]; 40 μg/ml): −
PCA TGx‐28.65 ([2]; 40 μg/ml): −
Dendogram TGx‐28.65 ([2]; 100 μg/ml): −
NSC TGx‐28.65 ([2]; 100 μg/ml): −
PCA TGx‐28.65 ([2]; 100 μg/ml): −
% Relative Survival (TK6 cells [3]; 8 μg/ml): 94.13%
% Relative Survival (TK6 cells [3]; 40 μg/ml): 65.32%
% Relative Survival (TK6 cells [3]; 100 μg/ml): 38.91%
% Relative Survival (TK6 cells [3]; 100 μg/ml, listed as phenanthrene): ~40%
% Apoptotic cells (TK6 cells [4]; 8 μg/ml): 10.60%
% Apoptotic cells (TK6 cells [4]; 40 μg/ml): 14.71%
% Apoptotic cells (TK6 cells [4]; 100 μg/ml): 26.73%

Structure (SMILES): c1ccc2c(c1)ccc1cc3c(ccc4ccccc43)cc12 [Dibenz[a,h]anthracene]
% MN (TK6 cells [1]; 1 μg/ml, 4 hr + 20 hr recovery): 2.16%
% MN (TK6 cells [1]; 20 μg/ml, 4 hr + 20 hr recovery): 3.42%
% MN (TK6 cells [1]; 280 μg/ml, 4 hr + 20 hr recovery): 3.80%
statistically significant % MN increase relative to controls (TK6 cells [1]; definitive study): over twofold
ATF3 fold change vs vehicle control (+S9) (ATF3; 1 μg/ml): 1.1 fold change
ATF3 fold change vs vehicle control (+S9) (ATF3; 20 μg/ml): 1.6 fold change
ATF3 fold change vs vehicle control (+S9) (ATF3; 280 μg/ml): 2.3 fold change
GADD45A fold change vs vehicle control (+S9) (GADD45A; [12]): 1.2 fold change
GADD45A fold change vs vehicle control (+S9) (GADD45A; [13]): 1.7 fold change
GADD45A fold change vs vehicle control (+S9) (GADD45A; [14]): 2.0 fold change
Dendogram TGx‐28.65 ([2]; 1 μg/ml): +
NSC TGx‐28.65 ([2]; 1 μg/ml): −
PCA TGx‐28.65 ([2]; 1 μg/ml): −
Dendogram TGx‐28.65 ([2]; 20 μg/ml): +
NSC TGx‐28.65 ([2]; 20 μg/ml): +
PCA TGx‐28.65 ([2]; 20 μg/ml): +
Dendogram TGx‐28.65 ([2]; 280 μg/ml): +
NSC TGx‐28.65 ([2]; 280 μg/ml): +
PCA TGx‐28.65 ([2]; 280 μg/ml): +
classification using TGx‐28.65 ([2]; low concentrations): non‐genotoxic
classification by hierarchical cluster analysis (TGx‐28.65 genes) ([2]; lowest concentration): genotoxic
classification using TGx‐28.65 ([2]; mid and high concentrations): genotoxic
% Relative Survival (TK6 cells [3]; 1 μg/ml): 97.79%
% Relative Survival (TK6 cells [3]; 20 μg/ml): 64.12%
% Relative Survival (TK6 cells [3]; 280 μg/ml): 53.91%
% Apoptotic cells (TK6 cells [4]; 1 μg/ml): 9.74%
% Apoptotic cells (TK6 cells [4]; 20 μg/ml): 16.82%
% Apoptotic cells (TK6 cells [4]; 280 μg/ml): 31.79%
CDKN1A fold change vs vehicle control (+S9) (CDKN1A; [12]): 1.2 fold change
CDKN1A fold change vs vehicle control (+S9) (CDKN1A; [13]): 2.4 fold change
CDKN1A fold change vs vehicle control (+S9) (CDKN1A; [14]): 4.2 fold change

Structure (SMILES): CC(C)OS(C)(=O)=O [isopropyl methanesulfonate]
classification using TGx‐28.65 ([6]; TK6 cells, biomarker development study, ref Li et al.): genotoxic

Structure (SMILES): N.N.[Cl][Pt][Cl] [cisplatin]
classification using TGx‐28.65 ([6]; in the presence and absence of S9, ref Buick et al.): accurately classified the genotoxicity

Structure (SMILES): C[C@@H]1C[C@H]2[C@@H]3CCC4=CC(=O)C=C[C@]4(C)[C@@]3(F)[C@@H](O)C[C@]2(C)[C@@]1(O)C(=O)CO [Dexamethasone]
% Apoptotic cells (TK6 cells [7]; 0.63 mM): 5.5%
% Apoptotic cells (TK6 cells [7]; 1 mM): 12.2%
Dendogram TGx‐28.65 ([6]; 0.63 mM, ref Buick et al.): −
NSC TGx‐28.65 ([6]; 0.63 mM, ref Buick et al.): −
PCA TGx‐28.65 ([6]; 0.63 mM, ref Buick et al.): −
Dendogram TGx‐28.65 ([6]; 1 mM, ref Buick et al.): −
NSC TGx‐28.65 ([6]; 1 mM, ref Buick et al.): −
PCA TGx‐28.65 ([6]; 1 mM, ref Buick et al.): −

Structure (SMILES): CC(=O)Nc1ccc(O)cc1 [Acetaminophen]
concentration range in which toxic effects are observed (TK6 cells [1]; human): 3000 to 10000 µM

% MN (TK6 cells [1]; 10 μM, 4 hr + 20 hr recovery): 1.48%
% MN (TK6 cells [1]; 50 μM, 4 hr + 20 hr recovery): 2.23%
% MN (TK6 cells [1]; 300 μM, 4 hr + 20 hr recovery): 3.13%
Dendogram TGx‐28.65 ([2]; 10 μM): −
NSC TGx‐28.65 ([2]; 10 μM): −
PCA TGx‐28.65 ([2]; 10 μM): −
Dendogram TGx‐28.65 ([2]; 50 μM): −
NSC TGx‐28.65 ([2]; 50 μM): +
PCA TGx‐28.65 ([2]; 50 μM): +
Dendogram TGx‐28.65 ([2]; 300 μM): −
NSC TGx‐28.65 ([2]; 300 μM): +
PCA TGx‐28.65 ([2]; 300 μM): +
Structure (SMILES): O=[N+]([O-])c1ccc2c(c1)Cc1ccccc1-2 [2‐Nitrofluorene]
classification by hierarchical cluster analysis (TGx‐28.65 genes) ([2]; all concentrations): non‐genotoxic
classification using TGx‐28.65 ([2]; low concentrations): non‐genotoxic
classification using TGx‐28.65 ([2]; mid and high concentrations): genotoxic
% Apoptotic cells (TK6 cells [4]; 10 μM): 9.84%
% Apoptotic cells (TK6 cells [4]; 50 μM): 12.62%
% Apoptotic cells (TK6 cells [4]; 300 μM): 20.43%

Structure (SMILES): O=P1(N(CCCl)CCCl)NCCCO1 (centres unmarked) [Cyclophosphamide]
fold increase in % MN above vehicle + S9 control (TK6 cells [1]; human): 8 fold
